# Measurements as given in patent publication US20230015823A1, “METHODS OF ADMINISTERING VOXELOTOR” (Global Blood Therapeutics, Inc., priority 2019, published 2023).
# Where two headings read alike, the source gives them in different places.
# Columns and labels:
# [1] = Phase 1 study of a single oral dose of voxelotor in subjects with hepatic impairment: whole blood and plasma PK; assay type: in vivo, human; conditions: for half-life / Tmax / AUC(0-t) / AUC(0-inf) / Cmax / Vd/F: human, po; for half-life: read-out: t1/2, mean (converted); for Tmax: read-out: tmax, median (converted); for AUC(0-inf): read-out: AUCinf, GM (converted); for Cmax: read-out: Cmax, GM (converted); for Vd/F: read-out: Vz/F, GM (converted)
# Experimental: A Phase 1, open-label study was performed to characterize pharmacokinetics (PK) and safety of a single oral dose of voxelotor in subjects with hepatic impairment. The study was to assess the effects of mild, moderate, or severe hepatic impairment on the PK of a single oral dose of voxelotor, to evaluate the safety and tolerability of a single oral dose of voxelotor in subjects with mild, moderate, or severe hepatic impairment, as well as to establish potential dose adjustment guidance based upon the degree of hepatic insufficiency. […] This study was designed to assess the effects of mild, moderate, or severe hepatic impairment on the PK of a single oral dose of voxelotor. Routine safety assessments (AE monitoring, vital signs, physical examinations, clinical laboratory tests, and ECGs) were performed. Eligible subjects received a single oral dose of voxelotor 1500 mg (5×300-mg capsules) on Day 1 (for normal hepatic function, mild and moderate hepatic impairment). […] No food was allowed for at least 4 hours postdose. No water or any type of liquid was allowed for 1 hour before dosing through 1-hour postdose with the exception of water consumed for dosing. Adverse events and concomitant medication use were monitored throughout the study. Safety assessments, including physical examinations, vital signs assessments, 12-lead ECGs, and clinical laboratory tests, were performed. Whole blood and plasma concentrations of voxelotor were determined using validated assays. […] Louis, Mo.) and actual sampling times. The following PK parameters were determined. To assess the effect of hepatic impairment on the PK of voxelotor, a linear mixed-effect model was fitted to the log-transformed values of whole blood and plasma Cmax, AUCt, and AUCinf. The model included hepatic impairment group as a fixed effect and age and weight as covariates. Point estimates and 90% CIs for hepatic function group differences (mild, moderate, and severe hepatically-impaired subjects [test] versus the normal hepatic function subjects [control]) on the log scale were exponentiated to obtain estimates for GM ratios on the original scale. Voxelotor whole blood and plasma concentrations were measured using a validated liquid chromatography-mass spectrometry method. The lower limit of assay quantitation for voxelotor was 10.0 ng/mL for whole blood and 5.00 ng/mL in plasma.
# CYP3A4 = CYP3A4 (Homo sapiens, UniProt P08684); test: Effect of voxelotor on PK of CYP3A4 probe substrate midazolam in healthy subjects; conditions: human, in vivo
# Experimental: During Period 1, subjects received a single dose of caffeine 100 mg, warfarin sodium 10 mg+vitamin K 10 mg, omeprazole 20 mg, and midazolam hydrochloride 2 mg on Day 1. During Period 2, subjects received voxelotor 900 mg QD on Days 1 and 2 followed by 600 mg QD on Day 3, a single dose of caffeine 100 mg, warfarin sodium 10 mg+vitamin K 10 mg, omeprazole 20 mg, and midazolam hydrochloride 2 mg on Day 4, and voxelotor 600 mg QD on Days 4 through 7.
# Whole blood and plasma concentrations of voxelotor and plasma concentrations of caffeine, paraxanthine, S-warfarin, omeprazole, 5-hydroxyomeprazole, midazolam, and 1-hydroxymidazolam were determined using validated assays.
# [2] = whole blood, 600 mg, whole blood, severe hepatic impairment, 600 mg single oral dose
# [3] = whole blood, 1500 mg, whole blood, mild hepatic impairment, 1500 mg single oral dose
# [4] = whole blood, 1500 mg, whole blood, moderate hepatic impairment, 1500 mg single oral dose
# [5] = whole blood, 1500 mg, whole blood, normal hepatic function, 1500 mg single oral dose
# [6] = plasma, Mild (Test) vs Normal (Ref)
# [7] = plasma, Moderate (Test) vs Normal (Ref)
# [8] = plasma, Severe (Test, adjusted for dose) vs Normal (Ref)
# [9] = severe hepatic impairment, Cmax adjusted for dose
# [10] = whole blood, Mild (Test) vs Normal (Ref)
# [11] = whole blood, Moderate (Test) vs Normal (Ref)
# [12] = whole blood, Severe (Test, adjusted for dose) vs Normal (Ref)
# Sequence of CYP3A4 (P08684 whole entry): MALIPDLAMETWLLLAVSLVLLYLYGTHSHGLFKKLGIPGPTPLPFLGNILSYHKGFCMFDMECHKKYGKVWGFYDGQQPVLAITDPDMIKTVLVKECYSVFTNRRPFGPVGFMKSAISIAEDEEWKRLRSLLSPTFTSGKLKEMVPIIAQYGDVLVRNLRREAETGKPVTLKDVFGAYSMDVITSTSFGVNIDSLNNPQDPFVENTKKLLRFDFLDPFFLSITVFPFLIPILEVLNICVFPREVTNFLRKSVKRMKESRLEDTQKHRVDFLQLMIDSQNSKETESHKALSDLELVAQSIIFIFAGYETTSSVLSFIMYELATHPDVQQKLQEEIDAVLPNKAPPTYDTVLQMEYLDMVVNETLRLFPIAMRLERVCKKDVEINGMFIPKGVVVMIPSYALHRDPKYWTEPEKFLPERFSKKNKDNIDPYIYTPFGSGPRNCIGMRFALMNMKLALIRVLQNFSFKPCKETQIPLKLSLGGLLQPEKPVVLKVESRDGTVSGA
smiles,measurement,setting,value
"CC(C)n1nccc1-c1ncccc1COc1cccc(O)c1C=O [voxelotor, 2-hydroxy-6-((2-(1-isopropyl-1H-pyrazol-5-yl)pyridin-3-yl)methoxy)benzaldehyde]",half-life,[1]; [2],111 h
same,Tmax,[1]; [2],24 h
same,AUC(0-t),"[1]; whole blood, 1500 mg, whole blood, mild hepatic impairment, 1500 mg single oral dose, read-out: AUC0-96, GM (converted)",5160 µg·h/mL
same,AUC(0-inf),[1]; [3],8230 µg·h/mL
same,AUC(0-t),"[1]; whole blood, 1500 mg, whole blood, mild hepatic impairment, 1500 mg single oral dose, read-out: AUCt, GM (converted)",8190 µg·h/mL
same,Cmax,[1]; [3],73.6 µg/mL
same,Vd/F,[1]; [3],15.8 L
same,half-life,[1]; [3],60.1 h
same,Tmax,[1]; [3],24 h
same,AUC(0-t),"[1]; whole blood, 1500 mg, whole blood, moderate hepatic impairment, 1500 mg single oral dose, read-out: AUC0-96, GM (converted)",4660 µg·h/mL
same,AUC(0-inf),[1]; [4],8360 µg·h/mL
same,AUC(0-t),"[1]; whole blood, 1500 mg, whole blood, moderate hepatic impairment, 1500 mg single oral dose, read-out: AUCt, GM (converted)",8320 µg·h/mL
same,Cmax,[1]; [4],63.8 µg/mL
same,Vd/F,[1]; [4],20.6 L
same,half-life,[1]; [4],79.5 h
same,Tmax,[1]; [4],24 h
same,AUC(0-t),"[1]; whole blood, 1500 mg, whole blood, normal hepatic function, 1500 mg single oral dose, read-out: AUC0-96, GM (converted)",4270 µg·h/mL
same,AUC(0-inf),[1]; [5],6980 µg·h/mL
same,AUC(0-t),"[1]; whole blood, 1500 mg, whole blood, normal hepatic function, 1500 mg single oral dose, read-out: AUCt, GM (converted)",6950 µg·h/mL
same,Cmax,[1]; [5],60.9 µg/mL
same,Vd/F,[1]; [5],19.6 L
same,Tmax,[1]; [5],24 h
same,"plasma Cmax, higher than normal hepatic function",[1]; mild hepatic impairment,18%
same,"whole blood Cmax, higher than normal hepatic function",[1]; mild hepatic impairment,19%
same,AUC in whole blood higher compared to normal hepatic function,[1]; mild hepatic impairment (Child Pugh A),14%
same,"plasma Cmax, higher than normal hepatic function",[1]; moderate hepatic impairment,51%
same,"whole blood Cmax, higher than normal hepatic function",[1]; moderate hepatic impairment,6%
same,AUC in whole blood higher compared to normal hepatic function,[1]; moderate hepatic impairment (Child Pugh B),15%
same,"AUCinf, Ratio of Geometric LS Mean (Test to Reference)",[1]; [6],1.093
same,"AUCt, Ratio of Geometric LS Mean (Test to Reference)",[1]; [6],1.089
same,"Cmax, Ratio of Geometric LS Mean (Test to Reference)",[1]; [6],1.177
same,"AUCinf, Ratio of Geometric LS Mean (Test to Reference)",[1]; [7],1.180
same,"AUCt, Ratio of Geometric LS Mean (Test to Reference)",[1]; [7],1.207
same,"Cmax, Ratio of Geometric LS Mean (Test to Reference)",[1]; [7],1.510
same,"AUCinf, Ratio of Geometric LS Mean (Test to Reference)",[1]; [8],1.932
same,"AUCt, Ratio of Geometric LS Mean (Test to Reference)",[1]; [8],1.907
same,"Cmax, Ratio of Geometric LS Mean (Test to Reference)",[1]; [8],1.445
same,"CL/F, GM","[1]; plasma, mild hepatic impairment, 1500 mg single oral dose",76.69 L/h
same,"CL/F, GM","[1]; plasma, moderate hepatic impairment, 1500 mg single oral dose",56.14 L/h
same,"CL/F, GM","[1]; plasma, normal hepatic function, 1500 mg single oral dose",77.50 L/h
same,"CL/F, GM","[1]; plasma, severe hepatic impairment, 600 mg single oral dose",73.81 L/h
same,AUC in whole blood higher compared to normal hepatic function,[1]; severe hepatic impairment (Child Pugh C),90%
same,"plasma Cmax, higher than normal hepatic function",[1]; [9],45%
same,"whole blood Cmax, higher than normal hepatic function",[1]; [9],39%
same,"AUCinf, Ratio of Geometric LS Mean (Test to Reference)",[1]; [10],1.141
same,"AUCt, Ratio of Geometric LS Mean (Test to Reference)",[1]; [10],1.140
same,"Cmax, Ratio of Geometric LS Mean (Test to Reference)",[1]; [10],1.187
same,"AUCinf, Ratio of Geometric LS Mean (Test to Reference)",[1]; [11],1.151
same,"AUCt, Ratio of Geometric LS Mean (Test to Reference)",[1]; [11],1.149
same,"Cmax, Ratio of Geometric LS Mean (Test to Reference)",[1]; [11],1.056
same,"AUCinf, Ratio of Geometric LS Mean (Test to Reference)",[1]; [12],1.902
same,"AUCt, Ratio of Geometric LS Mean (Test to Reference)",[1]; [12],1.867
same,"Cmax, Ratio of Geometric LS Mean (Test to Reference)",[1]; [12],1.391
same,"CL/F, GM","[1]; whole blood, mild hepatic impairment, 1500 mg single oral dose",70.182 L/h
same,"CL/F, GM","[1]; whole blood, moderate hepatic impairment, 1500 mg single oral dose",60.179 L/h
same,"CL/F, GM","[1]; whole blood, normal hepatic function, 1500 mg single oral dose",70.215 L/h
same,"CL/F, GM","[1]; whole blood, severe hepatic impairment, 600 mg single oral dose",70.110 L/h
same,inhibition of CYP3A4 in vivo,CYP3A4,inhibits
